From patent US8349885B2, “Indole and indazole derivatives having a cell-, tissue- and organ-preserving effect” (LG Life Sciences Ltd., priority 2008, dated 2013) come the findings set out here.

One assay deals with primary cultured hepatocytes. Kind of assay: Cell-protecting effect against cold shock in primary cultured hepatocytes (WST-1). To be noted: Rattus norvegicus, Hepatocyte, 37° C. for 1 hour, 4° C. for 22 hours, then 37° C., cell viability by WST-1. Format: cell-based. As for the experimental part: In order to reproduce a condition for preservation prior to organ transplantation, primary cultured hepatocytes were prepared according to Experimental Example 1 and treated with the compounds of the working examples at 9 different concentrations that had been prepared by 3-fold serial dilution method using a starting concentration of 25 μM. The mixture was cultured at 37° C. for 1 hour, stored at 4° C. for 22 hours, and then transferred into an incubator at 37° C. and cultured therein. Cell viability was measured by the optical density at 440 nm according to the WST-1 method (MK-400, Takeda), and IC50 (unit: μM) was obtained using prism software (see Table 1).
(Tetrazolium dyes change colour on reduction, which living cells bring about.)
As a reminder, the IC50 is the midpoint of a concentration-inhibition curve. The low end stands for greater potency in that assay, the high end for weaker potency in that assay. On to `OC[C@@H]1CSC(c2cc3cccc(NC4CCCC4)c3[nH]2)=N1` [Example 5, [(R)-2-(7-cyclopentylamino-1H-indol-2-yl)-4,5-dihydro-1,3-thiazol-4-yl]-methanol], for which the IC50 is < 120 nM.
On to `OC[C@@H]1CSC(c2cc3cccc(NC4CCOCC4)c3[nH]2)=N1` [Example 7, {(R)-2-[7-(tetrahydro-pyran-4-ylamino)-1H-indol-2-yl]-4,5-dihydro-thiazol-4-yl}-methanol], for which the IC50 is < 400 nM.
Same read-out and setting: the value for `O=C(O)C[C@@H]1CSC(c2cc3cc(Br)cc(NC4CCCC4)c3[nH]2)=N1` [Example 16, [(R)-2-(5-bromo-7-cyclopentylamino-1H-indol-2-yl)-4,5-dihydro-thiazol-4-yl]-acetic acid] was 3560 nM.
For the molecule `CCOc1cc(NC2CCCC2)c2[nH]c(C3=N[C@H](CC(=O)O)CS3)cc2c1` [Example 17, [(R)-2-(7-cyclopentylamino-5-ethoxy-1H-indol-2-yl)-4,5-dihydro-thiazol-4-yl]-acetic acid], the IC50 is < 120 nM.
Molecule `CCOC(=O)CC[C@@H]1CSC(c2cc3cc(Cl)cc(NC4CCCC4)c3[nH]2)=N1` [Example 22, 3-[(R)-2-(5-chloro-7-cyclopentylamino-1H-indol-2-yl)-4,5-dihydro-thiazol-4-yl]-propionic acid ethyl ester] had an IC50 of 970 nM.
Take `c1ccc(-c2cc3cccc(NC4CCCC4)c3[nH]2)nc1` [Example 24, cyclopentyl-(2-pyridin-2-yl-1H-indol-7-yl)amine]: the IC50 was < 120 nM.
For the molecule `Cc1cc(NC2CCCC2)c2[nH]c(-c3nc(C(=O)O)cs3)cc2c1` [Example 29, 2-(7-cyclopentylamino-5-methyl-1H-indol-2-yl)-thiazole-4-carboxylic acid], the IC50 came out at 1460 nM.
For `Cc1cc(NC2CCCC2)c2[nH]c(-c3nc(CO)cs3)cc2c1` [Example 30, [2-(7-cyclopentylamino-5-methyl-1H-indol-2-yl)-thiazole-4-yl]-methanol], the IC50 was < 120 nM.
For the molecule `Cc1cc(NC2CCCC2)c2[nH]c(-c3nnco3)cc2c1` [Example 32, cyclopentyl-(5-methyl-2-[1,3,4]oxadiazol-2-yl-1H-indol-7-yl)-amine], the IC50 was < 120 nM.
For the molecule `Cc1cc(NC2CCC(=O)CC2)c2[nH]c(-c3ccccn3)cc2c1` [Example 38, 4-(5-methyl-2-pyridin-2-yl-1H-indol-7-ylamino)-cyclohexanone], the IC50 was < 120 nM.
Same read-out and setting: the value for `Cc1cc(NCC2CCCC2)c2[nH]c(-c3ccccn3)cc2c1` [Example 40, cyclopentylmethyl-(5-methyl-2-pyridin-2-yl-1H-indol-7-yl)-amine] was < 120 nM.
Take `Cc1cc(NC2CCCC2)c2[nH]c(C3CCCCC3)cc2c1` [Example 47, (2-cyclohexyl-5-methyl-1H-indol-7-yl)-cyclopentyl-amine]: the IC50 was < 120 nM.
Still for that read-out and setting: the value for `CC(=O)N1CCC(Nc2cc(C)cc3cc(-c4ccccc4)[nH]c23)CC1` [Example 51, 1-[4-(5-methyl-2-phenyl-1H-indol-7-ylamino)-piperidin-1-yl]-ethanone] was 260 nM.
For the molecule `Cc1cc(NC2CCC(C(=O)NCCN3CCOCC3)CC2)c2[nH]c(-c3ccccc3)cc2c1` (stereo not shown) [Example 56, 4-(5-methyl-2-phenyl-1H-indol-7-ylamino)-cyclohexane carboxylic acid (2-morpholin-4-yl-ethyl)-amide], the IC50 was 200 nM.
Regarding `Cc1cc(NCC2CCOCC2)c2[nH]c(-c3ccccc3)cc2c1` [Example 58, (5-methyl-2-phenyl-1H-indol-7-yl)-(tetrahydro-pyran-4-ylmethyl)-amine], the IC50 is < 120 nM.
Turning to `O=C(O)Cc1cc(NC2CCCC2)c2[nH]c(-c3ccccc3)cc2c1` [Example 75, (7-cyclopenthylamino-2-phenyl-1H-indol-5-yl)-acetic acid], the IC50 is < 120 nM.
Turning to `OCCc1cc(NC2CCCC2)c2[nH]c(-c3ccccc3)cc2c1` [Example 76, 2-(7-cyclopenthylamino-2-phenyl-1H-indol-5-yl)-ethanol], the IC50 was < 120 nM.
For the molecule `O=C(O)CC1CSC(c2cc3cccc(NC4CCCC4)c3[nH]2)=N1` (stereo not shown) [Example 83], the IC50 amounted to 729 nM.
`O=S1(=O)CCN(Cc2cc(NCC3CCOCC3)c3[nH]c(-c4ccccc4)c(Br)c3c2)CC1` [Example 142, [3-bromo-5-(1,1-dioxo-thiomorpholin-4-ylmethyl)-2-phenyl-1H-indol-7-yl]-(tetrahydro-pyran-4-ylmethyl)-amine] gave an IC50 of 300 nM.
Turning to `C[Si](C)(C)c1[nH]c2c(NC3CCOCC3)cc(CN3CCS(=O)(=O)CC3)cc2c1-c1ccccc1` [Example 146, [5-(1,1-dioxo-thiomorpholin-4-ylmethyl)-3-phenyl-2-trimethylsilanyl-1H-indol-7-yl]-(tetrahydropyran-4-yl)-amine], it took 603 nM to reach half-maximal inhibition (IC50).

Another assay concerns human embryonic lung cell line (LB-HEL). Briefly: Cell-protecting effect against cold shock in LB-HEL cells (WST-1). To be noted: cold shock at 4° C. for 24 hours, then 37° C., cell viability by WST-1. Format: cell-based. As for the experimental part:
The same results as above were also obtained in other types of cells such as human embryonic lung cell line (LB-HEL) as well as hepatocytes (see FIG. 2 and Table 2). More specifically, LB-HEL cells were plated at 1.5×10^6 cells/well using DMEM medium (Gibco BRL) and treated with DMSO, nec-1, IM-54 or the compounds of Examples 126, 127, 137 and 138 at indicated concentrations. After storage at 4° C. for 24 hours, the mixture was transferred into an incubator at 37° C. and cultured therein. In order to verify recovery capacity at 37° C., cell viability after 24 hours post-transfer was measured by the optical density at 440 nm according to the WST-1 method (MK-400, Takeda) and compared with cell viability prior to cold shock (FIG. 2).
In turn, `Cc1cc(NC2CCC(F)(F)CC2)c2[nH]c(C3=NC(CC(=O)O)CS3)cc2c1` (stereo not shown) [Example 79] had an IC50 of 3300 nM.
In turn, `O=C(O)CC1CSC(c2cc3cccc(NC4CCCC4)c3[nH]2)=N1` (stereo not shown) [Example 83] had an IC50 of 3660 nM.
Molecule `CC(=O)N1CCC(Nc2cccc3cc(C4=NC(CC(=O)O)CS4)[nH]c23)C1` (stereo not shown) [Example 84] gave an IC50 of 7110 nM.
Take `O=S1(=O)CCN(Cc2cc(NC3CCOCC3)c3[nH]c(-c4ccccc4)c(Br)c3c2)CC1` [Example 139]: the half-inhibitory concentration (IC50) is < 100 nM.
Still for that read-out and setting: the value for `Brc1c(-c2ccccc2)[nH]c2c(NC3CCOCC3)cc(CN3CCOCC3)cc12` [Example 140, [3-bromo-(5-morpholin-4-yl)methyl-2-phenyl-1H-indol-7-yl]-(tetrahydropyran-4-yl)-amine] was < 100 nM; that for `O=S1(=O)CCN(Cc2cc(NC3CCCC3)c3[nH]c(-c4ccccc4)c(Br)c3c2)CC1` [Example 141, [3-bromo-5-(1,1-dioxo-thiomorpholin-4-yl methyl)-2-phenyl-1H-indol-7-yl]-cyclopentyl-amine] was < 100 nM; that for `O=S1(=O)CCN(Cc2cc(NCC3CCOCC3)c3[nH]c(-c4ccccc4)c(Br)c3c2)CC1` [Example 142, [3-bromo-5-(1,1-dioxo-thiomorpholin-4-ylmethyl)-2-phenyl-1H-indol-7-yl]-(tetrahydro-pyran-4-ylmethyl)-amine] was < 100 nM.
As for `Clc1cc(NC2CCOCC2)c2[nH]cc(-c3ccccc3)c2c1` [Example 143, (5-chloro-3-phenyl-1H-indol-7-yl)-(tetrahydro-pyran-4-yl)-amine], the IC50 was < 100 nM.
For the molecule `Clc1cc(NC2CCCC2)c2[nH]cc(-c3ccccc3)c2c1` [Example 144, (5-chloro-3-phenyl-1H-indol-7-yl)-(cyclopentyl)-amine], the IC50 was < 100 nM.
On the same count and under the same terms, the value for `Clc1cc(NCC2CCOCC2)c2[nH]cc(-c3ccccc3)c2c1` [Example 145, (5-chloro-3-phenyl-1H-indol-7-yl)-(tetrahydropyran-4-ylmethyl)-amine] was < 100 nM; that for `C[Si](C)(C)c1[nH]c2c(NC3CCOCC3)cc(CN3CCS(=O)(=O)CC3)cc2c1-c1ccccc1` [Example 146, [5-(1,1-dioxo-thiomorpholin-4-ylmethyl)-3-phenyl-2-trimethylsilanyl-1H-indol-7-yl]-(tetrahydropyran-4-yl)-amine] was 823 nM; that for `O=C1CN(Cc2c(-c3ccccc3)[nH]c3c(NC4CCCC4)cc(Cl)cc23)CCN1` [Example 147, 4-(5-chloro-7-cyclopentylamino-2-phenyl-1H-indol-3-ylmethyl)-piperazin-2-one] was 1080 nM.
With `O=C1CN(Cc2c(-c3ccccc3)[nH]c3c(NC4CCOCC4)cc(Cl)cc23)CCN1` [Example 148, 4-[5-chloro-2-phenyl-7-(tetrahydropyran-4-ylamino)-1H-indol-3-ylmethyl]-piperazin-2-one], half-maximal inhibition (IC50) was put at 2350 nM.
In turn, `O=C1CN(Cc2c(-c3ccccc3)[nH]c3c(NCC4CCOCC4)cc(Cl)cc23)CCN1` [Example 149, 4-{5-chloro-2-phenyl-7-[(tetrahydropyran-4-ylmethyl)-amino]-1H-indol-3-ylmethyl}-piperazin-2-one] had an IC50 of 1450 nM.
On to `COc1ccc(-c2n[nH]c3c(NC4CCCC4)cccc23)cc1` [Example 150, cyclopentyl-[3-(4-methoxyphenyl)-1H-indazol-7-yl]-amine], for which 210 nM corresponded to half-maximal inhibition (IC50).
`COc1ccc(-c2n[nH]c3c(NC4CCOCC4)cccc23)cc1` [Example 151, [3-(4-methoxyphenyl)-1H-indazol-7-yl]-(tetrahydropyran-4-yl)-amine] came in with an IC50 of 384 nM.
In turn, `COc1ccc(-c2n[nH]c3c(NCC4CCOCC4)cccc23)cc1` [Example 152, [3-(4-methoxyphenyl)-1H-indazol-7-yl]-(tetrahydropyran-4-ylmethyl)-amine] showed an IC50 of 590 nM.
